The values that follow are results of earlier work, collected in US4332794A, “6"-Deoxydibekacin, 4",6"-dideoxydibekacin and 1-N-aminoacyl derivatives thereof, and the production of these new compounds” (Zaidan Hojin Biseibutsu Kagaku Kenkyu Kai, priority 1979, dated 1982).

Data set [1] deals with bacteria. As to conditions: Japanese patent application No. 54733/79; cited from earlier work.
The conditions of data set [2]: Japanese patent application No. 54733/79; cited from earlier work.
For data set [3], the system named is dibekacin-resistant bacteria. The conditions noted are these: prior art; cited from earlier work.

SMILES strings stand for the structures.

On to `C[C@H]1O[C@H](O[C@@H]2[C@@H](O)[C@H](O[C@H]3O[C@H](CN)[C@@H](O)[C@H](O)[C@H]3O)[C@@H](N)C[C@H]2NC(=O)[C@@H](O)CCN)[C@H](O)[C@@H](N)[C@@H]1O` [6"-deoxyamikacin, 1-N-(L-4-amino-2-hydroxybutyryl)-6"-deoxykanamycin A], for which, in data set [1], the “antibacterial activity compared to amikacin” value was “antibacterial activity as high as that of amikacin”. Besides, in data set [2], the oto-toxicity result is “low oto-toxicity”.

For `NCC[C@H](O)C(=O)N[C@@H]1C[C@H](N)[C@@H](O[C@H]2O[C@H](CN)CC[C@H]2N)[C@H](O)[C@H]1O[C@H]1O[C@H](CO)[C@@H](O)[C@H](N)[C@H]1O` [1-N-(L-4-amino-2-hydroxybutyryl)-3',4'-dideoxykanamycin B], the antibacterial activity entry in data set [3] was “effective against dibekacin-resistant bacteria”.

As to `C[C@@H]1C[C@H](N)[C@@H](O)[C@@H](O[C@@H]2[C@@H](O)[C@H](O[C@H]3O[C@H](CN)[C@@H](O)[C@H](O)[C@H]3O)[C@@H](N)C[C@H]2NC(=O)[C@@H](O)CCN)O1` [4",6"-dideoxyamikacin, 1-N-(L-4-amino-2-hydroxybutyryl)-4",6"-dideoxykanamycin A], the “antibacterial activity compared to amikacin” value in data set [1] is recorded as “antibacterial activity as high as that of amikacin”. Also, the oto-toxicity result in data set [2] is “low oto-toxicity”.
